Experimental data published in US20040006236A1, “Diaminopropionic acid derivatives” (priority 1999, published 2004).

Columns and labels:
[1] = target: T1, LFA-1 binding to immobilized ICAM-1 (Homo sapiens, UniProt P05107+P20701); assay: LFA-1/ICAM-1 protein-protein assay (solid-phase ELISA); conditions: read-out: LFA-1/ICAM-1 Protein-Protein Assay IC50
T1 construct: made in house; host or cells: transfected 293 cells (LFA-1)
How it was run: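 Human 5dICAM-Ig (ICAM-1 extracellular domain–IgG Fc) coated on plates; membrane-bound LFA-1 from transfected 293 cells (280 ng/mL) added with compound in Mn2+-containing HEPES buffer pH 7.2, 2 h at 37° C. Bound LFA-1 detected via anti-β2 antibody and HRP/TMB at 450 nm; IC50s determined.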

[2] = tested on: T lymphocyte proliferation (C57BI/6 spleen cells with irradiated BALB/c spleen cells); assay: Mixed lymphocyte reaction (MLR), one-way; format: cell-based, mice; conditions: Mus musculus, T-lymphocyte; read-out: MLR IC50
Source text: Admixture of murine spleen cells from two different inbred strains of mice induces proliferation of T lymphocytes. The magnitude of T cell proliferation depends on the extent of disparity in the major histocompatibility antigens between the two strains. Splenic T lymphocytes from both strains proliferate due to alloantigen recognition, a process for which the interaction of ICAM-1 on antigen-presenting cells with LFA-1 on lymphocytes is necessary. The ability of antagonists to inhibit T lymphocyte proliferation following recognition of alloantigens was assessed in a one-way MLR, where cells from one strain were irradiated to permit measurement of the proliferative response of cells from the other strain. Spleen cells were washed three times in tissue culture medium (TCM; see below). […] One hundred microliters of serial dilutions of antagonists or TCM were added to the spleen cell mixture. The total volume in each well was 200 μL. TCM was RPMI1640 containing 10% heat-inactivated fetal bovine serum, […] L-glutamine, 100 Units/ml each of penicillin and streptomycin and 5×10^−5 M 2-mercaptoethanol. Dilutions of antagonists were prepared in TCM. Plates were incubated in 5% CO2 for 3 days. On the third day, 0.5 μCi of tritiated thymidine (10 μCi/mL) was added to all the wells. Cells were harvested 6 h later on a 96-well plate harvester and the amount of tritiated thymidine incorporated was assessed in a liquid scintillation counter.

[3] = tested on: Mac-1 and LFA-1-mediated neutrophil binding to immobilized ICAM-1; assay: Neutrophil (Mac-1 and LFA-1)/ICAM-1 cell-based screening assay; conditions: human neutrophils
Experimental: Both Mac-1 and LFA-1 are expressed on the cell surface of neutrophils. The ability of antagonists to inhibit Mac-1 and LFA-1-mediated neutrophil binding to immobilized ICAM-1 was quantitated by a cell based assay. Typically, fusion protein consisting of the entire extracellular domain of human ICAM-1 and the Fc domain of human IgG (5dICAM-Ig) was coated onto 96 well microtiter plates (1 μg in 100 μL TBS) overnight at 4° C. The plates were then blocked with 150 μL of 10% PVP in TBS for 1 h at 37° C. Plates were washed 3 times (150 μL each) with TBS. Human neutrophils were purified from whole blood from healthy volunteers using LSM (ICN). Cells (8×10^6/mL) were fluorescently labeled with 6-carboxyfluorescein (100 μg/mL) for 40 min in IMDM/1 mM MgCl2/1.2 mM CaCl2 as described in Example 287. Cells (8×10^6/mL) were stimulated with f-Met-Leu-Phe (10 μM) for 5 min at room temperature just prior to being used in the assay, and diluted to 2×10^6 cells/mL with RPMI/0.05% BSA/0.2 mM MnCl2. Stock solutions (10 mM) of test compounds were diluted to 2.5 mM with DMSO. A series of 1:4 dilutions in DMSO were performed to achieve a concentration range of 38.2 nM-2.5 mM. Each sample was further diluted 50-fold with RPMI/0.05% BSA/0.2 mM MnCl2. Equal volumes of labeled cells were then added to assay tubes containing diluted compound. Final concentrations of compound tested in the assay ranged from 0.38 nM-25 μM with a cell concentration of 1×10^6 per mL. Cells were incubated for 10 min at 37° C. with gentle shaking, then dispensed (100 μL per well) onto ICAM-1 coated plates and incubated for 30 min at 37° C./5% CO2. Unbound cells were washed and plates were read on a Cytofluor™ 2300 (Millipore) as described in Example 384.

T1 sequence (P20701 26-1170): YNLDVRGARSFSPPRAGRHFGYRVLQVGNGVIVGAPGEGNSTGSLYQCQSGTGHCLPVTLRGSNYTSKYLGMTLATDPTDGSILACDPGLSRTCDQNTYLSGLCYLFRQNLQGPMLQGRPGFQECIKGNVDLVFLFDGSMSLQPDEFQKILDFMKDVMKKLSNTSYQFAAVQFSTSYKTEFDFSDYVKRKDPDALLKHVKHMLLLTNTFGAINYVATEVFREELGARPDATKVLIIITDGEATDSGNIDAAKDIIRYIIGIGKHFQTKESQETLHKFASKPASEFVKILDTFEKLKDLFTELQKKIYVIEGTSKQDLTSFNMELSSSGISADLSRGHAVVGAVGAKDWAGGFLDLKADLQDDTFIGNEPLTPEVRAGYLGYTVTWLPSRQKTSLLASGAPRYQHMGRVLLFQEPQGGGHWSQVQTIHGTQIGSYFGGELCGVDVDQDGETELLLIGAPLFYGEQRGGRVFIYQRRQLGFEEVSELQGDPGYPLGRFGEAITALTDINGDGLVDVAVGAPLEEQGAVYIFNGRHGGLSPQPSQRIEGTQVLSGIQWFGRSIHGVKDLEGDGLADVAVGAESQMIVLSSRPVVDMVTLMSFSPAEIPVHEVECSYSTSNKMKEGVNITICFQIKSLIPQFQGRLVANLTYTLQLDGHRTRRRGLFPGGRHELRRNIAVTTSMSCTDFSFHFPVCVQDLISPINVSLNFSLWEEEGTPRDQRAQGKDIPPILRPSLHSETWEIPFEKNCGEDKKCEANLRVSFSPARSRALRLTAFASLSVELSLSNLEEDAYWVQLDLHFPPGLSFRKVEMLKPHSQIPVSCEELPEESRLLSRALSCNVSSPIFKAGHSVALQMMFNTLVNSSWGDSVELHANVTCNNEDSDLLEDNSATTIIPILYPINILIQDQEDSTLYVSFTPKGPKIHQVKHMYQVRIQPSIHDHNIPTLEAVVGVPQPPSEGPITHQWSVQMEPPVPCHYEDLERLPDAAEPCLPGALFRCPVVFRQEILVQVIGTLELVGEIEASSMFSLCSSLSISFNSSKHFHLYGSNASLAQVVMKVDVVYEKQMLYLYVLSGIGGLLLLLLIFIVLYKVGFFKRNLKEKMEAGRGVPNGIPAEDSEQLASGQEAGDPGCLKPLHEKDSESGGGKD
T1 sequence (P05107 23-769): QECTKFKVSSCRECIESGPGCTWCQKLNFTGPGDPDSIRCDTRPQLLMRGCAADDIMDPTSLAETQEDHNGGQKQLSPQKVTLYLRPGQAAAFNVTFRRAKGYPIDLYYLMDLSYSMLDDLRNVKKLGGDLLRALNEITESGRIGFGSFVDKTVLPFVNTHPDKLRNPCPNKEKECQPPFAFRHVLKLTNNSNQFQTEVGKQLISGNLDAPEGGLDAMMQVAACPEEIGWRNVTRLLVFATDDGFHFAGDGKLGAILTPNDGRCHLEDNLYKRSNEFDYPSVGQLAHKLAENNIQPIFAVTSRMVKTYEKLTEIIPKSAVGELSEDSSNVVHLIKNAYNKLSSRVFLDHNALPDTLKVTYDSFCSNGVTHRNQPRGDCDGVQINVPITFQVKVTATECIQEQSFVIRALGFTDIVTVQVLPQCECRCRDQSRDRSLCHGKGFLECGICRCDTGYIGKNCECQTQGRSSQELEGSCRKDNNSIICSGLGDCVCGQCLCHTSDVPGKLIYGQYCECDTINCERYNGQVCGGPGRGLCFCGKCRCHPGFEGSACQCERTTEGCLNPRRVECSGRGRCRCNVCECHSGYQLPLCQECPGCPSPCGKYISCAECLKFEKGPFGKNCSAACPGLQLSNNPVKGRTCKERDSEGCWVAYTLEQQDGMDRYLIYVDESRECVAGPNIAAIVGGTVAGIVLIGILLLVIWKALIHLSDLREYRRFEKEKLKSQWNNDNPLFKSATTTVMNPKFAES

With Cc1cc(C(=O)NCc2cccc(O)c2)cc(Cl)c1C(=O)N[C@@H](CNC(=O)c1cc(O)cc(O)c1)C(=O)O [Example 341, N-[2-chloro-4-[[[(3-hydroxyphenyl)methyl]amino]carbonyl]-6-methylbenzoyl]-3-(3,5-dihydroxybenzoylamino)-L-alanine] the IC50 [1] was 300 pM, the IC50 [2] was 3000 pM and the IC50 [3] was 300 pM.
